We go through 36 molecules from patent US11286268B1, “EIF4E-inhibiting compounds and methods” (EFFECTOR THERAPEUTICS, INC., priority 2019, dated 2022).

The target in this assay is recombinant eIF4E (Homo sapiens (Human), UniProt P06730). Description: Fluorescence polarization competition assay for eIF4E binding potency. The method, then:
Compounds were screened for eIF4E binding potency using a fluorescence polarization competition assay. All binding reactions were performed in fluorescence polarization buffer (FPB) containing 20 mM Tris pH 7.5, 100 mM NaCl, 1 mM DTT, and 0.02% Tween-20. Final binding reactions contained 75 nM recombinant eIF4E (Beryllium, custom order), 20 nM EDA-m^7GDP-ATTO-550 (Jena Bioscience, NU-827-550) and varying concentrations of the inhibitory compound of interest. Final DMSO concentration in each reaction was 1%.
eIF4E protein was pre-incubated with EDA-m^7GDP-ATTO-550 in FPB at 2× concentrations for 5 minutes prior to the addition of compounds. Compounds (100×) were prepared using 3-fold serial dilutions in 100% DMSO, and subsequently diluted 1:50 in FPB to produce 2× stocks. 50 μl of 2× eIF4E/EDA-m^7GDP-ATTO-550 were transferred to the wells of a 96-well half-area black flat bottom polystyrene plate. 50 μl of 2× test compound were added, and binding reactions were allowed to equilibrate for 30 minutes at room temperature while protected from light. The fluorescent polarization signal was detected using a Victor 2 multi-label counter (Perkin Elmer) and the concentration necessary to achieve inhibition of eIF4E/EDA-m^7GDP-ATTO-550 binding by 50% (IC50) was calculated using data from an 8-point compound dilution series.
In Table 4A, IC50 values of less than 0.05 μM are labelled as “+++”, from 1 to 0.05 μM are labelled as “++”, and greater than 1 μM are labelled as “+”. ND=not determined.
Background: In fluorescence polarisation assays a small probe gives low polarisation when free and higher when bound to something large.

The mark [1] stands for this setting: fluorescence polarization competition, 75 nM recombinant eIF4E, 20 nM EDA-m7GDP-ATTO-550, IC50 class, read-out: elF4E FP.
Setting [2] is: inhibition of eIF4E/EDA-m7GDP-ATTO-550 binding by 50%, Table 4B calculated values, read-out: IC50.
Where [3] appears, read: inhibition of eIF4E/EDA-m7GDP-ATTO-550 binding, calculated IC50 values, Table 4B, read-out: IC50.

Structures are written as SMILES. Read-outs that look alike come from different tables or passages of the source. Some results are limits rather than exact numbers.

Chain of recombinant eIF4E (P06730 whole entry): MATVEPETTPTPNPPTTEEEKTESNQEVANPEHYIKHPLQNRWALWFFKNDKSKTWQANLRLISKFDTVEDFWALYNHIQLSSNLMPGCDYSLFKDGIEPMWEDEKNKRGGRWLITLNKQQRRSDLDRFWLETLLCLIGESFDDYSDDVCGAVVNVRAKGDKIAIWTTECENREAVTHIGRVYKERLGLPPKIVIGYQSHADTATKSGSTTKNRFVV

Consider `Cc1cc(-c2cc(Cl)ccc2OCCn2c(C)nc3cc(-c4cccnc4)c(Cl)c(C#N)c3c2=O)c2scc(C(=O)O)c2n1` [compound 1098], for which the IC50 was under 0.05 µM under setting [1] and 0.0156 µM under setting [2].
On to `Cc1nc2cnc(N(C)C3CCN(C4CC(F)(F)C4)CC3)c(C#N)c2c(=O)n1CCOc1ccc(Cl)cc1-c1ccnc2c(C(=O)O)csc12` [compound 1477], for which the IC50 under setting [3] is 0.0181 µM.
In the case of `Cn1ccc2c(=O)n(CCOc3ccc(Cl)cc3-c3cccc(C(=O)O)c3)cnc21` [compound 68], the IC50 is over 1 µM under setting [1] and 64.3 µM under setting [2].
As for `N#Cc1cccc2nc(C(F)F)n(CCOc3ccc(Cl)cc3-c3ccc(C(=O)O)c(C(=O)O)c3)c(=O)c12` [compound 148], the IC50 by setting is: under setting [1], under 0.05 µM; under setting [2], 0.0205 µM.
`CCN(c1ncc2nc(C)n(CC#Cc3ccc(Cl)cc3-c3ccnc4c(C(=O)NS(C)(=O)=O)csc34)c(=O)c2c1C#N)C1CCN(C2COC2)CC1` [compound 1578]: the IC50 under setting [3] is 0.0203 µM.
Take `Cc1nc2cnc(N(C)C3CCN([C@H]4C[C@@H](OC(F)F)C4)CC3)c(C#N)c2c(=O)n1CC#Cc1ccc(Cl)cc1-c1ccnc2c(C(=O)O)csc12` [compound 1172]: the IC50 runs as follows: under setting [1], under 0.05 µM; under setting [2], 0.0142 µM.
Turning to `Cc1nc2cnc(SC3CCN(CC(F)(F)F)CC3)c(C#N)c2c(=O)n1CCOc1ccc(Cl)cc1-c1ccnc2c(C(=O)O)csc12` [compound 1349], under setting [3], the IC50 is 0.0365 µM.
With `Cc1nc2cnc(C3CCC(F)(F)CC3)c(C#N)c2c(=O)n1CC#Cc1ccc(Cl)cc1-c1ccnc2c(C(=O)O)csc12` [compound 1481], under setting [3], the IC50 is 0.0208 µM.
With `Cc1cc(-c2cc(Cl)ccc2OCCn2c(C)nc3cnc(C4CC4)c(C#N)c3c2=O)c2scc(C(=O)O)c2n1` [compound 418], the IC50 by setting is: under setting [1], under 0.05 µM; under setting [2], 0.00907 µM.
For the molecule `Cc1nc2cnc(N(C)C3CCN(CC(C)(F)F)CC3)c(C#N)c2c(=O)n1CC#Cc1ccc(Cl)cc1-c1ccnc2c(C(=O)NS(=O)(=O)CC(F)(F)F)csc12` [compound 1595], under setting [3], the IC50 is 0.0548 µM.
Take `Cc1cc(-c2cc(Cl)ccc2OCCn2c(C)nc3cc(Cl)c(N4CC(O)C4)c(C#N)c3c2=O)c2scc(C(=O)O)c2n1` [compound 698]: the IC50 under setting [1] was under 0.05 µM and the IC50 under setting [2] was 0.0034 µM.
For `Cc1nc2c(OC(F)(F)F)ccc(C#N)c2c(=O)n1CCOc1ccc(Cl)cc1-c1ccnc2c(C(=O)O)csc12` [compound 313], in that order: under 0.05 µM and 0.0345 µM.
With `Cc1nc2cc(C(F)(F)F)c(N3CC4(C3)CN(C3CC3)C4)c(C#N)c2c(=O)n1CCOc1ccc(Cl)cc1-c1ccnc2ccsc12` [compound 2015], under setting [3], the IC50 is 0.0511 µM.
With `Cc1nc2cnc(/C=C/CN(C)CCF)c(C#N)c2c(=O)n1CC#Cc1ccc(Cl)cc1-c1ccnc2c(C(=O)O)csc12` [compound 1402], the IC50 under setting [3] is 0.00658 µM.
As for `Cc1nc2cnc(N(C)C3CCN(CCOC(F)(F)F)CC3)c(C#N)c2c(=O)n1CC#Cc1ccc(Cl)cc1-c1ccnc2c(C(=O)O)csc12` [compound 1170], the IC50 by setting is: under setting [1], under 0.05 µM; under setting [2], 0.0171 µM.
For the molecule `CCc1cc(-c2cc(Cl)ccc2OCCn2c(C)nc3cc(C(F)(F)F)c(-c4cccnc4)c(C#N)c3c2=O)c2scc(C(=O)O)c2n1` [compound 1013], the IC50 was under 0.05 µM under setting [1] and 0.0185 µM under setting [2].
In the same order, the values of `COc1c(C(F)(F)F)cc2nc(C)n(CCOc3ccc(Cl)cc3-c3cc(C)nc4c(C(=O)O)csc34)c(=O)c2c1C#N` [compound 1036] are under 0.05 µM and 0.00351 µM.
As to `Cc1nc2cnc(N(C)C3CCN(C4CC(F)(F)C4)CC3)c(C#N)c2c(=O)n1CC#Cc1ccc(Cl)cc1-c1ccnc2c(C(=O)NS(=O)(=O)c3ccncc3)csc12` [compound 1829], the IC50 under setting [3] is 0.00627 µM.
In the case of `N#Cc1cc2c(=O)n(CCOc3ccc(Cl)cc3-c3nc(C(=O)O)cs3)cnc2cn1` [compound 81], the IC50 reads like this: under setting [1], over 1 µM; under setting [2], 4.22 µM.
In the case of `COc1ccc(C#N)c2c(=O)n(CCOc3ccc(Cl)cc3-c3ccnc4c(C(=O)O)csc34)c(C)nc12` [compound 403], the IC50 is, setting by setting: under setting [1], under 0.05 µM; under setting [2], 0.0126 µM.
Regarding `CCN(c1ncc2nc(C)n(CC#Cc3ccc(Cl)cc3-c3ccnc4c(C(=O)O)csc34)c(=O)c2c1C#N)C1CCN(CC(F)(F)C(F)F)CC1` [compound 1191], the IC50 reads like this: under setting [1], under 0.05 µM; under setting [3], 0.0128 µM.
Turning to `Cc1cc(-c2cc(Cl)ccc2OCCn2c(C)nc3c(F)cc(C(F)F)c(C#N)c3c2=O)c2scc(C(=O)NS(C)(=O)=O)c2n1` [compound 566], the IC50 is, setting by setting: under setting [1], under 0.05 µM; under setting [2], 0.0164 µM.
As for `N#Cc1cccc2nc(C(F)F)n(CCOc3ccc(Cl)cc3-c3cccc(C(=O)O)c3)c(=O)c12` [compound 1973], the IC50 under setting [3] was 0.0143 µM.
For `CCCc1ncc2nc(C)n(CCOc3ccc(Cl)cc3-c3cc(C)nc4c(C(=O)O)csc34)c(=O)c2c1C#N` [compound 1063], under setting [1], the IC50 is under 0.05 µM.
As to `Cc1nc2cnc(/C=C/C3(N(C)C)CC3)c(C#N)c2c(=O)n1CCOc1ccc(Cl)cc1-c1ccnc2c(C(=O)O)csc12` [compound 1123], the IC50 is under 0.05 µM under setting [1] and 0.0215 µM under setting [2].
For the molecule `CCc1cc(-c2cc(Cl)ccc2OCCn2c(C)nc3c(Cl)nc(C4CC4)c(C#N)c3c2=O)c2scc(C(=O)O)c2n1` [compound 1198], the IC50 runs as follows: under setting [1], under 0.05 µM; under setting [3], 0.013 µM.
As to `COC1CN(c2c(Cl)cc3nc(C)n(CCOc4ccc(Cl)cc4-c4cc(C)nc5c(C(=O)O)csc45)c(=O)c3c2C#N)C1` [compound 701], the IC50 by setting is: under setting [1], under 0.05 µM; under setting [2], 0.0192 µM.
In the same order, the values of `Cc1cc(-c2cc(Cl)ccc2OCCn2c(C)nc3c(C)c(C(F)(F)F)cc(C#N)c3c2=O)c2scc(C(=O)O)c2n1` [compound 364] are 0.05 to 1 µM and 0.107 µM.
For the molecule `Cc1nc2cnc(N(C)C3CCN(CCC(F)(F)F)CC3)c(C#N)c2c(=O)n1CCOc1ccc(Cl)cc1-c1ccnc2c(C(=O)O)csc12` [compound 1360], under setting [3], the IC50 is 0.0168 µM.
Take `N#Cc1cc(C(F)(F)F)cc2nc(CF)n(CCOc3ccc(Cl)cc3-c3ccnc4c(C(=O)O)csc34)c(=O)c12` [compound 181]: the IC50 under setting [1] lay in the range of 0.05 to 1 µM and the IC50 under setting [2] is 0.0623 µM.
For the molecule `Cc1nc2cnc(C3=CCNCC3)c(C#N)c2c(=O)n1CCOc1ccc(Cl)cc1-c1ccnc2c(C(=O)O)csc12` [compound 1626], the IC50 under setting [3] was 0.0303 µM.
In the case of `CCN(c1ncc2nc(C)n(CC#Cc3ccc(Cl)cc3-c3ccnc4c(C(=O)NS(=O)(=O)CC(F)(F)F)csc34)c(=O)c2c1C#N)C1CCN(C2COC2)CC1` [compound 1734], the IC50 under setting [3] is 0.0194 µM.
In the case of `Cc1cc(-c2cc(Cl)ccc2OCCn2c(C)nc3c(C)nc(-c4cc(F)ccc4F)c(C#N)c3c2=O)c2scc(C(=O)O)c2n1` [compound 998], the IC50 was under 0.05 µM under setting [1] and 0.0451 µM under setting [2].
On to `N#Cc1ccc(C#N)c2c(=O)n(CCOc3ccc(Cl)cc3-c3ccnc4c(C(=O)O)csc34)c(C(F)F)nc12` [compound 1943], for which the IC50 under setting [3] is 0.0424 µM.
Same read-out and setting: the same measure for `CCN(c1ncc2nc(C)n(CC#Cc3ccc(Cl)cc3-c3ccnc4c(C(=O)NS(C)(=O)=O)csc34)c(=O)c2c1C#N)C1CCN(C2CC(F)(F)C2)CC1` [compound 1601]: 0.00805 µM.
For `Cc1cc(-c2cc(Cl)ccc2OCCn2c(C)nc3cnc(N4CCc5ccccc54)c(C#N)c3c2=O)c2scc(C(=O)O)c2n1` [compound 982], the IC50 runs as follows: under setting [1], under 0.05 µM; under setting [2], 0.0204 µM.
